Conditions: copper sulfate concentration up to 70% (weight percent) in the composition, applied to horse hoofs

O=S(=O)([O-])[O-].[Cu+2] [copper sulfate]
harmfulness in this usage (topical hoof thrush treatment): not be harmful
